Assay results as given in US9387160B2, “Composition and method of treating skin conditions” (Johnson & Johnson Consumer Holdings France, priority 2008, dated 2016).

Assays:
[1] = Relative polarity index (RPI = log K, octanol/water partition coefficient); format: physicochemical; details: difference between Emollient RPI and Retinoid RPI
From the text: The relative polarity index (RPI) of an emollient is well known by the one skilled in the art. The methodology for its calculation is described in the article published by Wiesher et al. 2004 Int J. Cosmetic Science. 26, 173-182. RPI can be calculated from the octanol/water partition coefficient (K) with: RPI=log K. Partition coefficient estimations K have been published, for example in: • Leo A, Hansch C, and Elkins D (1971). “Partition coefficients and their uses”. Chem Rev 71 (6): 525-616. • Wilkinson, Andrew M.; McNaught, Alan D. (1997). “Partition Coefficient”. Compendium of Chemical Terminology: IUPAC Recommendations. Oxford: Blackwell Science. doi:10.1351/goldbook. ISBN 0-86542-684-8. http://goldbook.iupac.org/P0447.html and • Sangster, James (1997). Octanol-Water Partition Coefficients: Fundamentals and Physical Chemistry, Vol. 2 of Wiley Series in Solution Chemistry. Chichester: John Wiley & Sons Ltd. pp. 178 pages. The RPI of retinol is approximatively 1. The RPI of retinal and retinol esters are well-known by the one skilled in the art and are similar to RPI of retinol. The net RPI of an emollient to the retinoid is the difference between the Emollient RPI and the Retinoid RPI. The net RPI of a composition to the retinoid is the difference between the Composition RPI and the Retinoid RPI. […]

[2] = RPI=log K, octanol/water; cited from earlier work

Compound | net relative polarity index to retinol [1] | RPI (relative polarity index) [2]
CCCCCCCCCCCCCC(C)C [isohexadecane] | 9.11 | 
CC1=C(/C=C/C(C)=C/C=C/C(C)=C/CO)C(C)(C)CCC1 [retinol] |  | ~1
PPG15 stearyl ether | having the same polarity as retinol | 
